US8211919B2, “Amide derivatives as rock inhibitors” (Astellas Pharma Inc., priority 2005, dated 2012)
Counter-ions that a name gives are not always drawn.

Key:
human ROCK I = target: T1, human ROCK I (Homo sapiens, UniProt Q13464); assay: ROCK enzyme inhibition assay; assay type: biochemical
T1 construct: purchased Caruna Biosciences (sic)
Method: ROCK enzyme inhibitory activity of the compounds of the present invention has been assayed as follow. A aqueous solution of Rho kinase substrate MYTP was added to 96-well plate. Following incubation for overnight at 4° C., the plate was blocked by using blocking buffer containing BSA. To the plate was added reaction buffer containing each concentration of compound, suitable concentration of human ROCK I (Caruna Biosciences), ATP, β-glycerol phosphate, EGTA, sodium orthovanadate and DTT, and then the plate was incubated for 1 hour. After washing the plate by washing buffer, anti-phosphothreonin antibody was added to the plate, and then the plate was incubated for 1 hour. After washing the plate by washing buffer again, HRP-conjugated anti-phosphorylated protein antibody was added to the plate, and then the plate was incubated for 1 hour. After washing the plate by washing buffer again, calorimetric substrate TMB microwell peroxidase substrate was added to the plate, and then the plate was incubated for appropriate time. After incubation, H2SO4 was added to the plate to stop the reaction, and then absorbance (450 nm) was measured by using spectromether. Based on the absorbance for each compound, the data is fit using Prism software to obtain a IC50 value.

[1] = test system: Male SD rats, intra-articular MIA in right knee; assay: Changes in hindlimb weight distribution, monosodium iodoacetate (MIA) osteoarthritis model; assay type: in vivo; conditions: Rattus norvegicus, 504 h; oral administration; three weeks after MIA injection; incapacitance tester
Excerpt: As intra-articular injection of monosodium iodoacetate (MIA) induced human osteoarthritis-like histopathological changes in knee joint, this model would be very useful for the study of human osteoarthritis. Recently, it is reported the clinical scores of the joint pain were closely correrated to the grade of histological findings (J Vet Med Sci 65, 1195, 2003) and this model may be useful for estimation of therapeutic effects of pain with osteoarthritis.
Male SD rats were anesthetized with halothane (Takeda, Japan) and given single intra-articular injection of 1 mg of monosodium iodoacetate (MIA; Sigma, St. Louis, USA) through the infrapatellar ligament of the right knee. MIA was dissolved with physiologic saline and administered in a volume of 50 ul using a 27-gauge, 0.5-inch needle. Three weeks after the injection, hindlimb weight distribution was determined using an incapacitance tester (Linton Instrumentation, Norfork, UK). Rats were allowed to acclimate to the testing apparatus and when stationary, readings were taken over a 5 s period. […] Each group in each experiment were performed in about 8 animals.

Male Wistar rats [2] = assay: Effects on hindlimb blood flow (laser Doppler); assay type: in vivo, rat; conditions: 10 mg/kg p.o.
Excerpt: As one of the study to clarify the usefulness of the compounds of the present invention for peripheral arterial disease, we conducted a study to evaluate the effects of the compounds on hindlimb blood flow in rats.
Male Wistar rats were anesthetized by intraperitoneal pentobarbital injection (Kanto chemical, Japan) after oral administration of compounds. Rats were placed on a heating plate for subsequent hindlimb blood flow analysis. We measured hindlimb blood flow using a laser Doppler blood flow meter (PeriScan System, Stockholm, Sweden). After the laser Doppler images were recorded, the average perfusion values of both limbs were calculated, and evaluated the effects of compounds on hindlimb blood flow. Each experiment was performed in about 4 animals.

[3] = test system: Female SD rats, bradykinin injected into knee joint cavity; assay: Pain alleviation effect on bradykinin induced joint pain model; assay type: in vivo, rat
Method: Bradykinin is known to be one of the important pain-related mediators in various pain and especially, sodium hyaluronate which is useful for pain in osteoarthritis is reported to be effective in bradykinin-induced joint pain model. Therefore, we examined effects of compounds in the model.
The making of the joint pain model and evaluation of a level of pain was conducted essentially based on the method described in Folia pharmacol. japon., 92, 17-27 (1988). Female SD rats (6-7 weeks old, Charles River Japan, Inc.) were anesthetized with halothane (Wako). Compound of the above Example were administrated orally to the rat by using oral sonde for rat. 60 min after administration of the compound, saline solution of bradykinin was injected into knee joint cavity of hind limb of rat (3 uM/site/50 ul), and then the response to pain of the rat after administration of bradykinin was observed. Level of pain was scored as five grade point (0-4) as follow: 0: no lameness to lameness for 10 seconds; 1: lameness for 10 to 30 seconds; 2: lift of the limb within 10 seconds or lameness for 31 or more seconds; 3: three-legged gait within 10 seconds followed by lameness; 4: three-legged gait for 10 or more seconds followed by lameness. About 10 rat models were used in each experimental group. It was confirmed that administration of bradykinin leads to response to pain scored as about 3.

Male Wistar rats [4] = assay: Inhibitory effects on phenylephrine-induced elevation of urethral pressure; assay type: in vivo, rat; conditions: i.v.; phenylephrine 30 ug/kg i.v.
Excerpt: To evaluate the usefulness of the compounds of the present invention for urinary dysfunction associated with benign prostatic hyperplasia, we investigated the inhibitory effects of the intravenous administration of the compounds on phenylephrine-induced elevation of the urethral pressure in rats.
Male Wistar rats were anesthetized with urethane (SIGMA, USA). After midline abdominal incision, catheter to measure the urethral pressure (3.5 Fr, Millar, USA) was inserted into the urethra from top of the bladder. After confirming the Phenylephrine (30 ug/kg i.v.)-induced elevation of the urethral pressure, compounds were administered intravenously in increasing doses. Every 5 min after administration of compounds, Phenylephrine (30 ug/kg i.v.) was injected, and the inhibitory effects of compounds on phenylephrine-induced elevation of urethral pressure were evaluated. Each experiment was performed in about 4 animals.

T1 sequence (Q13464 whole entry): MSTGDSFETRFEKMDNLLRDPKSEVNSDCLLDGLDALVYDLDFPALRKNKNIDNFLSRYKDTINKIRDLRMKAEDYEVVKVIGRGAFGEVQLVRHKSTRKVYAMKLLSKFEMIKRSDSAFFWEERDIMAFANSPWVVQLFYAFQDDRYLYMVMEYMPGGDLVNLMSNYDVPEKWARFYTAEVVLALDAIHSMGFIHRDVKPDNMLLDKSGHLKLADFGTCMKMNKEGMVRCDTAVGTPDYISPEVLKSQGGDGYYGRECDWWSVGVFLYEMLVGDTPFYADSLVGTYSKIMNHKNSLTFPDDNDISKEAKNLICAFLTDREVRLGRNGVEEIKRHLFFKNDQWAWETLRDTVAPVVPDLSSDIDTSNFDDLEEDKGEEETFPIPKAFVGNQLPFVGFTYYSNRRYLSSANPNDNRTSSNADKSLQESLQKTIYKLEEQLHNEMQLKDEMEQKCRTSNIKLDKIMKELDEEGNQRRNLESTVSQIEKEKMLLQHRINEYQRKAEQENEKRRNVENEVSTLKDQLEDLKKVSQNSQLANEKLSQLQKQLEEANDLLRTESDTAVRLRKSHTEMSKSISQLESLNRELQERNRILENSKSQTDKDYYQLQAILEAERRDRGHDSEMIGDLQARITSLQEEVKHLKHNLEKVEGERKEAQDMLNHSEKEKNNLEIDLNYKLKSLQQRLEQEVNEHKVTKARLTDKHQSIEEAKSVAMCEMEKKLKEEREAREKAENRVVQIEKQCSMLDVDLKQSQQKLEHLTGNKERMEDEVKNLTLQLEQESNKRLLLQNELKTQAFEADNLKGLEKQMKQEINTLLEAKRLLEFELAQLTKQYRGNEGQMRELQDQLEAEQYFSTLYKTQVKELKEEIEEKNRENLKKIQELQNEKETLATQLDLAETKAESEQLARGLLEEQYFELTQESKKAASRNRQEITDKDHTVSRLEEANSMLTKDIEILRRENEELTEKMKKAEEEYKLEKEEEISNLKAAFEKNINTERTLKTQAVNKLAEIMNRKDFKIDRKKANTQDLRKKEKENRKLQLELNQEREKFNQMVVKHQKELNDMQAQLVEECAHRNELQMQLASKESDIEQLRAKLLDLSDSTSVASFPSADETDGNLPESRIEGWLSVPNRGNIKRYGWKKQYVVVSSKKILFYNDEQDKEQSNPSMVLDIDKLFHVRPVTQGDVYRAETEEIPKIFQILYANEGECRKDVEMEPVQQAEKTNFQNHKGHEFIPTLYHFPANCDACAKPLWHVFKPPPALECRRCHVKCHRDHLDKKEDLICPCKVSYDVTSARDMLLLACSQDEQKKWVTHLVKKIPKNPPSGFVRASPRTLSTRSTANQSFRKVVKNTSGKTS

SMILES	IC50 (human ROCK I)	ED50 [1]	% of increase of blood flow (Male Wistar rats [2])	pain score ([3]; 32 mg/kg orally, 60 min before bradykinin, grade 0-4, vehicle 2.7)	bradykinin-induced pain responses ([3]; oral administration, dose dependence)	Inhibition of elevation in urethral pressure ED30 (Male Wistar rats [4])
O=C(NCc1ccccc1)Nc1ccc(-c2ccncc2)cc1 [Example 1, 1-benzyl-3-[4-(4-pyridinyl)phenyl]urea]	342 nM					
C[C@@H](NC(=O)Nc1ccc(-c2ccncc2)cc1)c1ccccc1 [Example 3, 1-[(1R)-1-phenylethyl]-3-[4-(4-pyridinyl)phenyl]urea]	240 nM					
O=C(Nc1ccc(-c2ccncc2)cc1)N[C@H](CO)c1ccccc1 [Example 4, 1-[(1S)-2-hydroxy-1-phenylethyl]-3-[4-(4-pyridinyl)phenyl]urea]	122 nM	< 3 mg/kg	>130%			
Cl.O=C(CNc1ccccc1)Nc1ccc(-c2ccncc2)cc1 [Example 26, 2-anilino-N-[4-(4-pyridinyl)phenyl]acetamide hydrochloride]	77 nM			1.4	dose dependently improved	
N[C@@H](Cc1ccccc1)C(=O)Nc1ccc(-c2ccncc2)cc1 [Example 53, (2S)-2-amino-3-phenyl-N-[4-(4-pyridinyl)phenyl]propanamide dihydrochloride]	18 nM					
N[C@H](Cc1ccccc1)C(=O)Nc1ccc(-c2ccncc2)cc1 [Example 54, (2R)-2-amino-3-phenyl-N-[4-(4-pyridinyl)phenyl]propanamide]	10 nM	< 3 mg/kg	>130%			
N[C@@H](Cc1ccccc1)C(=O)N1CCc2cc(-c3ccncc3)ccc21 [Example 58, (2S)-1-oxo-3-phenyl-1-[5-(4-pyridinyl)-2,3-dihydro-1H-indol-1-yl]-2-propanamine]	53 nM	< 3 mg/kg				
O=C(Nc1ccc(-c2ccncc2)cc1)N[C@H](CO)c1cccs1 [Example 67, 1-[(1R)-2-hydroxy-1-(2-thienyl)ethyl]-3-[4-(4-pyridinyl)phenyl]urea]	112 nM	< 3 mg/kg	>130%			
O=C(Nc1ccc(-c2ccncc2)cc1)N[C@H](CO)c1ccccc1C(F)(F)F [Example 72, 1-{(1S)-2-hydroxy-1-[2-(trifluoromethyl)phenyl]ethyl}-3-[4-(4-pyridinyl)phenyl]urea]	25 nM					
O=C(Nc1ccc(-c2ccncc2)cc1)N[C@@H](CO)Cc1ccccc1 [Example 73, 1-[(1R)-1-benzyl-2-hydroxyethyl]-3-[4-(4-pyridinyl)phenyl]urea]	84 nM					
N[C@H](Cc1cccc(F)c1)C(=O)Nc1ccc(-c2ccncc2)cc1 [Example 86, 3-fluoro-N-[4-(4-pyridinyl)phenyl]-D-phenylalaninamide]	5 nM		>130%			
CN[C@H](Cc1ccccc1)C(=O)Nc1ccc(-c2ccncc2)cc1 [Example 98, N-alpha-methyl-N-[4-(4-pyridinyl)phenyl]-D-phenylalaninamide]	21 nM	< 3 mg/kg	>130%			

Continued, in another order:

IC50 (human ROCK I)	SMILES	ED50 [1]	% of increase of blood flow (Male Wistar rats [2])	pain score ([3]; 32 mg/kg orally, 60 min before bradykinin, grade 0-4, vehicle 2.7)	bradykinin-induced pain responses ([3]; oral administration, dose dependence)	Inhibition of elevation in urethral pressure ED30 (Male Wistar rats [4])
14 nM	N[C@@H](C(=O)Nc1ccc(-c2ccncc2)cc1)c1ccccc1 [Example 108, (2R)-2-amino-2-phenyl-N-[4-(4-pyridinyl)phenyl]acetamide]	< 3 mg/kg	>130%			
12 nM	N[C@H](C(=O)Nc1ccc(-c2ccncc2)cc1)c1ccccc1 [Example 109, (2S)-2-amino-2-phenyl-N-[4-(4-pyridinyl)phenyl]acetamide]					<1 mg/kg
212 nM	O=C(Nc1ccc(-c2ccncc2)cc1)C(c1ccccc1)N1CCOCC1 (centres unmarked) [Example 119, 2-morpholin-4-yl-2-phenyl-N-[4-(4-pyridinyl)phenyl]acetamide]	< 3 mg/kg				
86 nM	Nc1nccc(-c2ccc3c(c2)CCN3C(=O)[C@@H](N)Cc2ccccc2)n1 [Example 151, 4-{1-[(2S)-2-amino-3-phenylpropanoyl]-2,3-dihydro-1H-indol-5-yl}pyrimidin-2-amine]					<1 mg/kg
42 nM	Nc1nccc(-c2ccc(NC(=O)[C@H](N)c3ccccc3)cc2)n1 [Example 154, (2R)-2-amino-N-[4-(2-aminopyrimidin-4-yl)phenyl]-2-phenylacetamide]	< 3 mg/kg	>130%			<1 mg/kg
72 nM	Nc1nccc(-c2ccc(NC(=O)[C@H](N)c3cccs3)cc2)n1 [Example 155, (2S)-2-amino-N-[4-(2-aminopyrimidin-4-yl)phenyl]-2-(2-thienyl)acetamide]					
